From patent US9850273B2, “Combination of estrogens plus antiprogestins with significant partial agonistic effect as an effective treatment of menopausal symptoms and for prevention of the occurrence of breast cancer” (Evestra, Inc., priority 2014, dated 2017)
Read-outs that look alike come from different tables or passages of the source.

What was measured:
[1] = target: T1, progesterone receptor (Homo sapiens, UniProt P06401); assay: PR transactivation assay, antagonistic activity (PR luciferase reporter); format: cell-based; conditions: for Ratio of IC50's: PR agonism / PR antagonism
T1 sequence (P06401 165-933 limits assumed): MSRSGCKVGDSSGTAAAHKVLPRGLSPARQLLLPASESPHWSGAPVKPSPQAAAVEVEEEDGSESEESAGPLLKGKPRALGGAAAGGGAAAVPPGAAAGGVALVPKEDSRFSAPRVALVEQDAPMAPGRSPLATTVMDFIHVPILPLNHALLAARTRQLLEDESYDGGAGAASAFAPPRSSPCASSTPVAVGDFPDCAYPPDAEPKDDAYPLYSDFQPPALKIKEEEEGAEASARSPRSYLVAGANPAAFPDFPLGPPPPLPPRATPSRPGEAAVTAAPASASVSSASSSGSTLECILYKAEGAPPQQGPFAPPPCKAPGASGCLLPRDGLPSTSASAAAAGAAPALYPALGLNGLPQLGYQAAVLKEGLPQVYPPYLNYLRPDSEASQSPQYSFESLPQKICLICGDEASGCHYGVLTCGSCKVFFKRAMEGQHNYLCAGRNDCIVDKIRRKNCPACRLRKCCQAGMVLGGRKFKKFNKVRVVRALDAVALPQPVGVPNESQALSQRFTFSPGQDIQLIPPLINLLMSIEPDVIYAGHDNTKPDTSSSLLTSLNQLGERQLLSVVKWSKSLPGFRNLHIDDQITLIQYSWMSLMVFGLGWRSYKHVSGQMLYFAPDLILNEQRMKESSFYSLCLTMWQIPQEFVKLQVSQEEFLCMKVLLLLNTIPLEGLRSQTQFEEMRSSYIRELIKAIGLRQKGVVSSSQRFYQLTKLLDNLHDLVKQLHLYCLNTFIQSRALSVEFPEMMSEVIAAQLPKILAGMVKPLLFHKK
Description: (§1) Transactivation Assay for Progesterone Agonist and Antagonistic Activity (See Table 1).
(§2) Experimental: PR transactivation studies was carried out in human breast cancer (T47D) cells, grown in RPMI medium without phenol red and 5% charcoal stripped fetal bovine serum, transiently transfected with PR luciferase reporter (CCS-6043L signal reporter assay kit, Qiagen). The cells were stimulated R5020 as PR agonist and treated in the presence or absence of the tested compounds for 24 hours.

[2] = target: T2, progesterone receptor (Homo sapiens, UniProt P06401); assay: PR transactivation assay, agonistic activity (PR luciferase reporter); format: cell-based; conditions: T47D cells
T2 sequence (P06401 679-933 limits assumed): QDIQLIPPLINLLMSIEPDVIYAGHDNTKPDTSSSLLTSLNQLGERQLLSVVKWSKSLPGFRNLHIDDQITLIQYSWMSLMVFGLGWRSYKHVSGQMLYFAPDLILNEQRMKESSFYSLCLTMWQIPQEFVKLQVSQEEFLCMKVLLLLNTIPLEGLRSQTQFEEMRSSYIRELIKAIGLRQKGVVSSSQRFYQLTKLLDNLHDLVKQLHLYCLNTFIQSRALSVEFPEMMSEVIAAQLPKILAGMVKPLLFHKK
Description: as §1
as §2, with “hours. The effect was calculated using dual luciferase assay kit (Promega, WI)) based on RU486 as full antagonist and R5020 as agonist for progesterone receptor.” for “hours.”

[3] = test system: estradiol-primed immature female rabbits; assay: McPhail and anti-McPhail tests in rabbits; format: in vivo, rabbit; conditions: for antiprogestational activity (anti-McPhail test): immature female rabbit
Source text: The McPhail test in the immature female rabbit is a well-established model to test progestatational and antiprogestational activity [McPhail 1934).

[4] = test system: guinea pig; assay: Guinea pig model (ovulation inhibition, uterine weight, vagina, ovary, classification); format: in vivo; conditions: for Classification: guinea pig model; for ER-/PR balance vagina. / Ovary (CL): at max. dose (10.mg/day s.c.); for Ovary (CL): CL = corpora lutea
[5] = T47D cells, stimulant R5020, read-out: IC50 Average of 2 expts
[6] = Table 2 summary, read-out: PR antagonism (IC50)
[7] = stimulant R5020, read-out: EC50
[8] = estradiol-primed immature female rabbit

Row | IC50 [1, 5] | IC50 [1, 6] | EC50 [2, 7] | Ratio of IC50's [1] | Antagonist rel to RU486 (%) ([1]; T47D cells, stimulant R5020) | Agonist rel to R5020 (%) [2] | EC50 ([2]; control compound R5020, read-out: Control EC50) | Structure (SMILES) | progestational activity (McPhail test) ([3]; dose of 3 mg/animal/day) | Classification [4] | Uterine Weight at max. dose (10.mg/day s.c.) ([4]; guinea pig) | ER-/PR balance vagina. ([4]; guinea pig) | Ovary (CL) ([4]; guinea pig) | progestational activity (McPhail test) [3, 8] | antiprogestational activity (anti-McPhail test) [3] | Ovulation Inhibition ([4]; guinea pig) | progestational activity relative to CDB 2914 ([3]; assumed from McPhail test) | ER-/PR balance vagina.: dose at which the dominance is seen ([4]; guinea pig)
1 | 620 pM | 620 pM | 4900 pM | – | – | – | – | COC[C@]1(OC)CC[C@H]2[C@@H]3CCC4=CC(=O)CCC4=C3[C@@H](c3ccc(/C=N/O)cc3)C[C@@]21C [ASOPRISNIL, reference compound] | – | – | – | – | – | – | – | – | – | –
2 | 325 pM | 330 pM | 9500 pM | 28.7 | 342.9% | 3.9% | – | C[C@]12C[C@H](c3ccc(S(C)(=O)=O)cc3)C3=C4CCC(=O)C=C4CC[C@H]3[C@@H]1CC[C@@]2(O)C(F)(F)C(F)(F)F [BAY 1002670, reference compound] | – | – | – | – | – | – | – | – | – | –
3 | 650 pM | 650 pM | 21500 pM | 38.4 | 120% | 1.5% | – | CC(=O)O[C@]1(C(C)=O)CC[C@H]2[C@@H]3CCC4=CC(=O)CCC4=C3[C@@H](c3ccc(N(C)C)cc3)C[C@@]21C [CDB-2914, reference compound] | didn't show any activity at all | blunted PR- | (1.01) | ER-domin. | degenerated | – | – | – | – | –
4 | 700 pM | 700 pM | 25000 pM | 30.7 | 300% | 1.4% | – | COCC(=O)[C@@]1(OC(C)=O)CC[C@H]2[C@@H]3CCC4=CC(=O)CCC4=C3[C@@H](c3ccc(N(C)C)cc3)C[C@@]21C [CDB-4124, reference compound] | – | PR-antagonist | 1.41 | ER-domin. | deg. & | did not exhibit any progestational activity | higher antiprogestational activity than RU 486 | ≦10.0 mg | – | –
5 | 5000 pM | 5000 pM | 5000 pM | 1.0 | 21.8% | 7% | – | C=C1CCOC12CCC1C3CCC4=CC(=O)CCC4=C3[C@@H](c3ccc(-n4ccnc4)cc3)C[C@@]12C (stereo partly drawn) [EC336] | – | – | – | – | – | – | – | – | – | –
6 | 2100 pM | 2100 pM | 4750 pM | 2.2 | 57.1% | 6.4% | – | CC[C@@H]1CC2C3CCC4=CC(=O)CCC4=C3[C@@H](c3ccc(-c4ccoc4)cc3)C[C@]2(C)C1C(C)=O (stereo partly drawn) [EC343, 11β-{4′-[3′-furanyl)phenyl}-16α-ethyl-19-norpregna-4,9-diene-3,20-dione] | – | – | – | – | – | – | – | – | – | –
7 | 350 pM | – | – | – | 324% | 0.32% | – | C=C[C@@H]1CC2C3CCC4=CC(=O)CCC4=C3[C@@H](c3ccc(-c4cccnc4)cc3)C[C@]2(C)C1C(C)=O (stereo partly drawn) [EC344, 11β-{4′-[3′-pyridinyl)phenyl}-16α-ethenyl-19-norpregna-4,9-diene-3,20-dione] | – | – | – | – | – | – | – | – | – | –
8 | 1000 pM | – | 49000 pM | – | 120% | 0.65% | – | C=C[C@@H]1CC2C3CCC4=CC(=O)CCC4=C3[C@@H](c3ccc(-c4ccoc4)cc3)C[C@]2(C)C1C(C)=O (stereo partly drawn) [EC345, 11β-{4′-[3′-furanyl)phenyl}-16α-ethenyl-19-norpregna-4,9-diene-3,20-dione] | – | – | – | – | – | – | – | – | – | –
9 | 300 pM | – | – | – | 378% | 0.32% | – | CC[C@@H]1CC2C3CCC4=CC(=O)CCC4=C3[C@@H](c3ccc(-n4ccnc4)cc3)C[C@]2(C)C1C(C)=O (stereo partly drawn) [EC346, 11β-{4′-[1′ imidazolyl)phenyl}-16α-ethyl-19-norpregna-4,9-diene-3,20-dione] | – | mesoprogestin | 0.8 | PR-domin | degenerated | – | – | – | – | –
10 | 950 pM | 950 pM | 3400 pM | 3.5 | 120% | 9.7% | – | C=C[C@@H]1CC2C3CCC4=CC(=O)CCC4=C3[C@@H](c3ccc(-n4ccnc4)cc3)C[C@]2(C)C1C(C)=O (stereo partly drawn) [EC347] | – | mesoprogestin | 1.01 | PR-domin | degenerated | – | – | – | – | –
11 | 390 pM | 390 pM | 4610 pM | 11.8 | 292.7% | 7.0% | – | CC(=O)C1[C@H](C)CC2C3CCC4=CC(=O)CCC4=C3[C@@H](c3ccc(-c4cccnc4)cc3)C[C@@]21C (stereo partly drawn) [EC348, 11β-{4′-[3′-pyridinyl)phenyl}-16α-methyl-19-norpregna-4,9-diene-3,20-dione] | – | mesoprogestin | 1.01 | PR-domin | degenerated | – | – | – | – | –
12 | 625 pM | 630 pM | 51500 pM | 81.7 | 160% | 0.73% | – | C[C@]12C[C@H](c3ccc(-c4cccnc4)cc3)C3=C4CCC(=O)C=C4CCC3C1CCC21OCCC1=C(F)F (stereo partly drawn) [EC-312] | – | mesoprogestin | 1.03 | PR-domin. | degenerated | active both as a progestin agonist and antagonist | active both as a progestin agonist and antagonist | – | more than ten-fold higher | ≧0.1 mg
13 | 460 pM | 460 pM | – | 217.3 | 255.3% | 0.35% | – | C[C@]12C[C@H](c3ccc(-n4ccnc4)cc3)C3=C4CCC(=O)C=C4CCC3C1CC[C@@]2(O)C(F)(F)C(F)(F)F (stereo partly drawn) [EC-317] | – | – | – | – | – | – | – | – | – | –
14 | 950 pM | 950 pM | 5150 pM | 5.7 | 120% | 7% | – | CC[C@@H]1CC2C3CCC4=CC(=O)CCC4=C3[C@@H](c3ccc(-c4cccnc4)cc3)C[C@]2(C)C1C(C)=O (stereo partly drawn) [EC-342, 11β-{4′-[3′-pyridinyl)phenyl}-16α-ethyl-19-norpregna-4,9-diene-3,20-dione] | – | mesoprogestin | 0.86 | PR-domin | degenerated | – | – | – | – | –
15 | – | – | – | – | – | – | 350 pM | CCC(=O)[C@@]1(C)CC[C@H]2[C@@H]3CCC4=CC(=O)CCC4=C3CC[C@@]21C [R5020, reference compound] | – | – | – | – | – | – | – | – | – | –
16 | – | – | – | – | – | – | – | CC#C[C@]1(O)CC[C@H]2[C@@H]3CCC4=CC(=O)CCC4=C3[C@@H](c3ccc(N(C)C)cc3)C[C@@]21C [RU-486, reference compound] | – | – | (1.26) | – | – | – | – | – | – | ≧1.0 mg
